The values that follow come from the supplement of paper PMC12532568.

Counter-ions that a name gives are not always drawn.

This experiment concerns Danio rerio larvae Tg(actc1b:ZsGreen-LC3), 3 dpf. Description: LC3 puncta relative area vs vehicle (mean) (log2 fold change); higher = more autophagy. The settings on record: treatment time 16 h. The procedure: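 Transgenic ZsGreen-LC3 zebrafish larvae (2 dpf) were treated for 16 h with natural bioactives at 10, 50, 100 or 250 µM. Skeletal-muscle LC3 puncta area was measured by high-content imaging with or without 4 h of 100 mM NH4Cl, normalised to vehicle, and reported as the mean log2 fold change over 4–21 larvae.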

For the compound `C[C@@H](CO)C(=O)O` [Sodium β-hydroxyisobutyrate], the “LC3 puncta (log2)” value is, setting by setting: (NH4Cl: + NH4Cl, 10 µM) 0.761; (NH4Cl: + NH4Cl, 50 µM) 0.505; (NH4Cl: + NH4Cl, 100 µM) 0.553; (NH4Cl: + NH4Cl, 250 µM) 0.277; (NH4Cl: - NH4Cl, 10 µM) 0.14; (NH4Cl: - NH4Cl, 50 µM) -0.573. The “LC3 puncta (log2)” value is, setting by setting: (NH4Cl: - NH4Cl, 100 µM) -0.233; (NH4Cl: - NH4Cl, 250 µM) -0.327.
For `O=C(O)CCC(=O)O` [Succinic acid], the “LC3 puncta (log2)” value (NH4Cl: + NH4Cl, 10 µM) was determined as 0.752; the “LC3 puncta (log2)” value (NH4Cl: + NH4Cl, 50 µM) turned out to be 0.769; the “LC3 puncta (log2)” value (NH4Cl: + NH4Cl, 100 µM) was 0.297; the “LC3 puncta (log2)” value (NH4Cl: + NH4Cl, 250 µM) is 0.806; the “LC3 puncta (log2)” value (NH4Cl: - NH4Cl, 10 µM) was found to be 0.044; the “LC3 puncta (log2)” value (NH4Cl: - NH4Cl, 50 µM) stood at 0.06. In addition, the “LC3 puncta (log2)” value reads like this: (NH4Cl: - NH4Cl, 100 µM) -0.705; (NH4Cl: - NH4Cl, 250 µM) -0.0293.
As for `Cc1ccc(C(C)C)c(O)c1` [Thymol], the “LC3 puncta (log2)” value is, setting by setting: (NH4Cl: + NH4Cl, 10 µM) 0.947; (NH4Cl: + NH4Cl, 50 µM) 1.4; (NH4Cl: + NH4Cl, 100 µM) 1.68; (NH4Cl: + NH4Cl, 250 µM) 1.55; (NH4Cl: - NH4Cl, 10 µM) 0.0897; (NH4Cl: - NH4Cl, 50 µM) 0.575. In addition, the “LC3 puncta (log2)” value is, setting by setting: (NH4Cl: - NH4Cl, 100 µM) 0.869; (NH4Cl: - NH4Cl, 250 µM) 1.65.
On to `C[N+](C)(C)CCO.C[N+](C)(C)CCO.C[N+](C)(C)CCO.O=P([O-])([O-])[O-]` [Tricholine phosphate], for which the “LC3 puncta (log2)” value reads like this: (NH4Cl: + NH4Cl, 10 µM) 0.7; (NH4Cl: + NH4Cl, 50 µM) 0.208; (NH4Cl: + NH4Cl, 100 µM) -0.172; (NH4Cl: + NH4Cl, 250 µM) 0.38; (NH4Cl: - NH4Cl, 10 µM) 0.0959; (NH4Cl: - NH4Cl, 50 µM) 0.0907. Moreover, the “LC3 puncta (log2)” value is 0.25 (NH4Cl: - NH4Cl, 100 µM) and -0.277 (NH4Cl: - NH4Cl, 250 µM).
For the compound `CCOC(=O)CC(O)(CC(=O)OCC)C(=O)OCC` [Triethyl citrate], the “LC3 puncta (log2)” value was found to be 0.559 (NH4Cl: + NH4Cl, 10 µM); 0.524 (NH4Cl: + NH4Cl, 50 µM); 1.06 (NH4Cl: + NH4Cl, 100 µM); 1.44 (NH4Cl: + NH4Cl, 250 µM); 0.227 (NH4Cl: - NH4Cl, 10 µM); 0.572 (NH4Cl: - NH4Cl, 50 µM). Moreover, the “LC3 puncta (log2)” value stood at 0.551 (NH4Cl: - NH4Cl, 100 µM) and 0.957 (NH4Cl: - NH4Cl, 250 µM).
As for `C[n+]1cccc(C(=O)[O-])c1` [Trigonelline], the “LC3 puncta (log2)” value is, setting by setting: (NH4Cl: + NH4Cl, 10 µM) 0.266; (NH4Cl: + NH4Cl, 50 µM) 0.266; (NH4Cl: + NH4Cl, 100 µM) 0.112; (NH4Cl: - NH4Cl, 10 µM) 0.202; (NH4Cl: - NH4Cl, 50 µM) 0.619; (NH4Cl: - NH4Cl, 100 µM) 0.435. The “LC3 puncta (log2)” value (NH4Cl: - NH4Cl, 250 µM) was -0.0876.
For the compound `O=c1oc2cc(O)ccc2c2ccccc12` [Urolithin B], the “LC3 puncta (log2)” value (NH4Cl: + NH4Cl, 10 µM) was found to be 0.159; the “LC3 puncta (log2)” value (NH4Cl: + NH4Cl, 50 µM) was 1.38; the “LC3 puncta (log2)” value (NH4Cl: + NH4Cl, 100 µM) was found to be 1.04; the “LC3 puncta (log2)” value (NH4Cl: - NH4Cl, 10 µM) amounted to 0.474; the “LC3 puncta (log2)” value (NH4Cl: - NH4Cl, 50 µM) stood at 0.688; the “LC3 puncta (log2)” value (NH4Cl: - NH4Cl, 100 µM) was determined as 0.767.
With `CCCCC(=O)[O-].[Na+]` [Valeric acid sodium salt], the “LC3 puncta (log2)” value by setting is: (NH4Cl: + NH4Cl, 10 µM) -0.472; (NH4Cl: + NH4Cl, 50 µM) -0.35; (NH4Cl: + NH4Cl, 100 µM) -0.0575; (NH4Cl: + NH4Cl, 250 µM) -0.14; (NH4Cl: - NH4Cl, 10 µM) -0.132; (NH4Cl: - NH4Cl, 50 µM) 0.109. Besides, the “LC3 puncta (log2)” value (NH4Cl: - NH4Cl, 100 µM) is -0.272 and the “LC3 puncta (log2)” value (NH4Cl: - NH4Cl, 250 µM) was -0.191.
Regarding `CCC(O)CC(=O)O` (stereo not given) [b-Hydroxyvalerate], the “LC3 puncta (log2)” value came out at 0.933 (NH4Cl: + NH4Cl, 10 µM); 0.6 (NH4Cl: + NH4Cl, 50 µM); 1.08 (NH4Cl: + NH4Cl, 100 µM); 1.21 (NH4Cl: + NH4Cl, 250 µM); 0.353 (NH4Cl: - NH4Cl, 10 µM); 0.272 (NH4Cl: - NH4Cl, 50 µM). For the same compound, the “LC3 puncta (log2)” value reads like this: (NH4Cl: - NH4Cl, 100 µM) 0.404; (NH4Cl: - NH4Cl, 250 µM) 0.37.
With `CC1=C(/C=C/C(C)=C/C=C/C(C)=C/C=C/C=C(C)/C=C/C=C(C)/C=C/C2=C(C)CCCC2(C)C)C(C)(C)CCC1` [beta-Carotene], the “LC3 puncta (log2)” value was 0.44 (NH4Cl: + NH4Cl, 10 µM); 0.208 (NH4Cl: + NH4Cl, 50 µM); 0.299 (NH4Cl: + NH4Cl, 100 µM); 1.2 (NH4Cl: + NH4Cl, 250 µM); 0.227 (NH4Cl: - NH4Cl, 10 µM); -0.273 (NH4Cl: - NH4Cl, 50 µM). Also, the “LC3 puncta (log2)” value was determined as 0.207 (NH4Cl: - NH4Cl, 100 µM) and 0.305 (NH4Cl: - NH4Cl, 250 µM).
With `CCCCCCCCCCCCCCCCCC(=O)O` [stearic acid], the “LC3 puncta (log2)” value reads like this: (NH4Cl: + NH4Cl, 10 µM) 0.718; (NH4Cl: + NH4Cl, 50 µM) 0.677; (NH4Cl: + NH4Cl, 100 µM) 0.635; (NH4Cl: + NH4Cl, 250 µM) 1.13; (NH4Cl: - NH4Cl, 10 µM) 0.39; (NH4Cl: - NH4Cl, 50 µM) 0.392. Moreover, the “LC3 puncta (log2)” value is, setting by setting: (NH4Cl: - NH4Cl, 100 µM) 0.127; (NH4Cl: - NH4Cl, 250 µM) 0.245.
